Laboratory results from US20100204237A1, “Hydroxypyrimidinone derivatives having inhibitory activity against HIV integrase” (priority 2003, published 2010).
≈ marks a conversion by molar mass, not a printed value.

Experiments:
[1] = target: HIV integrase (Human immunodeficiency virus type 1 group M subtype B, UniProt P04585); assay: inhibitory activities against integrase (Experimental Example 1); assay type: biochemical; conditions: integrase inhibition, OD405 nm plate assay; read-out: Experimental example 1 (IC50, ng/ml) (converted)
Experimental: The inhibitory activities against integrase were determined by the assay described below.
A substrate DNA, solution (2 pmol/μl) and a target DNA solution (5 pmol/μl) were prepared in the manner as described in Experimental example 1 of WO 2004/024693. Before using the DNA solutions, complementary chains were annealed by slowly cooling after boiling. Substrate DNA and target DNA had sequences as described in that Experimental example.
Streptavidin, obtained from Vector Laboratories, was dissolved in 0.1 M carbonate buffer (composition: 90 mM Na2CO3, 10 mM NaHCO3) at concentration of 40 μg/ml. After coating each well of immunoplates (obtained from NUNC) with 50 μl of the above solution at 4° C. over night, each well was washed twice with PBS (composition: 13.7 mM NaCl, 0.27 mM KCl, 0.43 mM Na2HPO4, 0.14 mM KH2PO4) and blocked with 300 μl of 1% skim milk in PBS for 30 min. Additionally, each well was washed twice with PBS and added 50 μl of substrate DNA solution (2 pmol/μl). The immunoplates were kept at room temperature for 30 min while shaking. Then, each well was washed twice with PBS and once with H2O.
Subsequently, in the each well prepared above were added 51 μl of the reaction solution prepared from 12 μl of the buffer (composition: 150 mM MOPS (pH 7.2), 75 mM MnCl2, 50 mM 2-mercaptoethanol, 25% glycerol, 500 μg/ml bovine serum albumin-fraction V), and 39 μl of the distilled water. Then 9 μl of an integrase solution (30 pmol) was added and mixed well. In the well of negative control (NC) was added 9 μl of the integrase dilution buffer (composition: 20 mM MOPS (pH7.2), 400 mM potassium glutamate, 1 mM EDTA, 0.1% NP-40, 20% glycerol, 1 mM DTT, 4M urea), and mixed well using a plate mixer.
The plates were incubated at 30° C. for 60 minutes. The reaction solution was removed and washed three times with 250 μl of washing buffer (composition: 150 mM MOPS (pH7.2), 50 mM 2-mercaptoethanol, 25% glycerol, 500 μg/ml bovine serum albumin-fraction V).
Then each well was added with 53 μl of reaction solution prepared from 12 μl of buffer (composition: 150 mM MOPS (pH7.2), 75 mM MgCl2, 50 mM 2-mercaptoethanol, 25% glycerol, 500 μg/ml bovine serum albumin-fraction V) and 41 μl of distilled water. Further, each well was added with 6 μl of DMSO solution of a compound to be tested, and the well of positive control (PC) was added with 6 μl of DMSO, and mixed well by a plate mixer. After incubating the plate for 30 minutes at 30° C., was added 1 μl of target DNA (5 pmol/μl), and mixed well by a plate mixer.
After incubation for 10 minutes at 30° C., each plate was washed twice with PBS after removal of the reaction solution. […] The optical density at 405 nm (OD405 nm) of each well was measured and the inhibition rate (IC50) was determined by the following expression. […]

[2] = test system: HIV (HTLV-IIIB strain); assay: inhibitory activities against HIV cell proliferation, MT-4 cells, MTT (Experimental Example 2); assay type: cell-based; conditions: Human immunodeficiency virus 1, IIIB, MT4, 96 h, concentration at which 50% of cytopathy caused by viruses was inhibited, 4 days, read-out: Experimental example 2 (EC50, ng/ml)
Experimental: The inhibitory activities against HIV cell proliferation were determined by the assay method described below. • (1) HIV (HTLV-IIIB strain) persistence infection human T-cell strain Molt-4 clone 8 was cultured on RPMI-1640 medium supplemented with 10% fetal bovine serum, and the supernatant was measured for viral titer after filtration, and stored at −80° C. On the other hand, each anti-HIV active agent was diluted in the above culture medium to a predetermined concentration, and each well of a 96-well microplate was added with 50 μl of the resultant active agent solution. Then, 100 μl (3.5×10^4 cells) each of MT-4 cell suspension was poured into each well, followed by each 50 μl (60 pfu (plaque forming unit)) of the HIV-containing supernatant diluted with the above culture medium. • (2) After incubating for 4 days in a carbon dioxide incubator at 37° C., every well was added with 30 μl of 3-(4,5-dimethylthiazole-2-yl)-2,5-diphenyltetrazolium bromide (MTT) 5 mg/ml), PBS, and incubated for another 1 hour. At this time, since living cells reduce MTT to cause precipitation of formazane, 150 μl of cell supernatant was removed from each well, and instead 150 μl of lysis solution (isopropanol supplemented with 10% Triton X-100 and 0.4% (v/v) HCl) was added, to make formazane eluate by shaking with a plate mixer. […] The concentration of Compound at which 50% of cytopathy caused by viruses was inhibited was defined as EC50.

Row | Structure (SMILES) | IC50 [1] [nM] | EC50 [2] [ng/mL] | melting point [°C]
1 | CN(C(=O)c1ccccn1)C(C)(C)c1nc(-c2ncc(Cc3ccc(F)cc3)s2)c(O)c(=O)[nH]1 [Compound I-45] | 12.1 | 5.6 (≈ 0.0117 µM) | 245
2 | CC(=O)N1CCC[C@H]1c1nc(-c2nnc(Cc3ccc(F)cc3)o2)c(O)c(=O)n1C [Compound I-2] | 138 | 38 (≈ 0.0919 µM) | 170 to 172
3 | Cc1nc(-c2nnc(Cc3ccc(F)cc3)o2)c(O)c(=O)[nH]1 [Comparative example 1, reference compound] | 92.6 | 19000 (≈ 62.9 µM) | –
4 | CCN1C(C)n2c(nc(-c3ncc(Cc4ccc(F)cc4)s3)c(O)c2=O)C1(C)C (centres unmarked) [Compound I-60] | 15.9 | 18 (≈ 0.0434 µM) | 165 to 168
